Source: the supplement of paper PMC12646585

Test system: TK6
Test: relative viability (MTT, 20-24 h post-exposure) vs solvent control; higher = less cytotoxic
Conditions: exposure time: 4 h (S9 compounds: 3 h + 4 h recovery)
Procedure: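 Human TK6 lymphoblastoid cells were exposed for 4 h to three concentrations of each compound at four ring-trial labs. Compounds P, Q, R and CC were given for 3 h with rat liver S9 plus 4 h recovery. Relative survival was measured by MTT assay 20-24 h after exposure, as % viability relative to solvent control (mean with SD), in the Result 1 round with preselected concentrations.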

CCN(N=O)C(N)=O [ENU (N-Nitroso-N-ethylurea)]
relative viability [%]
Conditions | batch: 2, lab: Lab 1 | batch: 2, lab: Lab 2 | batch: 2, lab: Lab 3 | batch: 2, lab: Lab 4
concentration: 0.056mM | 97.9 | 87.58 | 99.1 | 101
concentration: 0.167mM | 92.2 | 104 | 93.5 | 89.3
concentration: 0.5mM | 70.5 | 95.6 | 69.3 | 76.1

CCC1(c2ccccc2)C(=O)N=C([O-])NC1=O.[Na+] (stereo not drawn) [Phenobarbital sodium]
relative viability [%]
Conditions | batch: 4, lab: Lab 1 | batch: 4, lab: Lab 2 | batch: 4, lab: Lab 3 | batch: 4, lab: Lab 4
concentration: 0.11mM | 98.3 | 85.5 | 149 | 95.2
concentration: 0.33mM | 95.6 | 84.2 | 119 | 96.8
concentration: 1mM | 95.7 | 82.3 | 116 | 99.5

CN[C@@H]1C[C@H]2O[C@@](C)([C@@H]1OC)n1c3ccccc3c3c4c(c5c6ccccc6n2c5c31)C(=O)NC4 [Staurosporine]
relative viability [%]
Conditions | batch: 3, lab: Lab 1 | batch: 3, lab: Lab 2 | batch: 3, lab: Lab 3 | batch: 3, lab: Lab 4
concentration: 3nm | 104 | 114 | 130 | 97.4
concentration: 10nm | 103 | 99.1 | 111 | 91.4
concentration: 30nm | 97 | 69.7 | 69.7 | 73.9

CCN(CC)CCNC(=O)c1c(C)[nH]c(/C=C2\C(=O)Nc3ccc(F)cc32)c1C.O=C(O)C[C@H](O)C(=O)O [Sunitinib malate]
relative viability [%]
Conditions | batch: 2, lab: Lab 1 | batch: 2, lab: Lab 2 | batch: 2, lab: Lab 3 | batch: 2, lab: Lab 4
concentration: 2.22uM | 103 | 77.8 | 91.3 | 99.4
concentration: 6.67uM | 90.4 | 64.7 | 69 | 86.4
concentration: 20uM | 64.6 | 28.5 | 37 | 40.8
